From patent publication US20260345605A1, “THERAPEUTIC AGENTS FOR HEART FAILURE” (Ottawa Hospital Research Institute, priority 2023, published 2026)

Key:
[1] = test system: cardiac fibrosis; conditions: phenylephrine, reported; cited from earlier work
[2] = test system: phenylephrine induced left ventricular hypertrophy; conditions: LV; HF markers; cited from earlier work
[3] = test system: CDK4; assay: pCDK4 Thr172 immunofluorescence and remodeling in primary cardiomyocytes; type: cell-based
Source text: (§1) Post treatment, the cells were washed, fixed, and were subjected to sequential staining of primary antibodies a Actinin and phospho-CDK4 (Thr172). The images were acquired using the Zeiss AxioVision SE64 Imaging software and analyzed using the ImageJ2 software.
Immunofluorescence was used to detect α-actinin, pCDK4 Thr172, and nuclei were stained with DAPI. […] The nuclear fluorescent intensity of pCDK4 Thr172 using the ImageJ software. The data are represented as Mean±Standard deviation.

[4] = test system: aurora kinase B; assay: pAurkB S727 immunofluorescence and remodeling in NRVM; type: cell-based, neonatal rat; conditions: PE 100 μM
Method: Immunofluorescence was performed to validate and assess the effect of aurora B kinase inhibitor on cardiomyocyte remodeling. NRVMs were plated at a density of 2.5×10^4 cells onto 25 mm diameter collagen coated coverslip. Primary cardiomyocytes were incubated with control serum-free medium (Ctrl, SF medium), hCT1 (0.5 nM), PE (100 μM), AZD1152-HQPA (1.5 μM) and assessed for aurora kinase B activation using pAurkB s727 antibody staining. The cells were treated with a combination of PE and AZD1152 HQPA where the cells were stimulated with the drug for 4 hours following the PE treatment for 24 hours.
as §1, with “phospho-AurkB (S727).” for “phospho-CDK4 (Thr172).”, “software. Immunofluorescence was used to detect α-actinin, pAurkb S727, and nuclei were stained with DAPI.” for “software.”

[5] = test system: phospho-Histone 3 (Ser10); assay: phospho-Histone 3 (pH3 Ser10) staining in NRVM; type: cell-based, neonatal rat; conditions: PE
Method: A one-way ANOVA test performed to assess statistical significance across treatment groups.
The effect of AZD1152-HQPA on cardiac remodeling was further validated using the phospho-Histone 3 (pH3 Ser10) staining which is the downstream target of aurora kinase B. The NRVMs were plated at a density of 2.5×10^4 cells onto 25 mm diameter collagen coated coverslip. The cells were treated with controls (hCT1, PE), AZD1152-HQPA followed by a combination of PE and AZD1152-HQPA.
as §1, with “phospho-Histone 3 (Ser10).” for “phospho-CDK4 (Thr172).”, “ImageJ” for “ImageJ2”, “software. […] The data are represented as Mean±Standard deviation.” for “software.”

[6] = test system: cardiac fibrosis; assay: Cardiac fibrosis by Masson's trichome staining in PE rat model; type: in vivo, Sprague Dawley rat
Method: Animal Model Preparation. Sprague Dawley rats were continuously treated with phenylephrine (PE), an α-adrenergic agonist that causes vasoconstriction leading to increased afterload and decreased ventricular function, to create a left-ventricular dysfunction animal model. […] For chronic infusion of phenylephrine, Alzet® mini-osmotic pumps (2002, Durect® Corp) containing Phenylephrine (PE) (10 mg/kg/day) or PBS vehicle were surgically implanted dorsally and subcutaneously in each Sprague Dawley rat under isoflurane anaesthesia. The animals were allowed to develop left ventricular hypertrophy for 2 weeks following the osmotic pump implantation.
Echocardiography was performed, the animals were sacrificed at 3 weeks endpoint and the blood and tissue were harvested for further analysis.
The rat model was prepared as described in Example 12, and the cardiac tissue harvested at the end of the 3 weeks was prepared with Masson's trichome staining methodology, which is a histological technique used to visualize and assess connective tissue, particularly collagen, within biological samples.

[7] = test system: collagen type I; assay: Collagen type I immunofluorescence in NRVM; type: cell-based, neonatal rat
Method: Primary NRVMs were seeded at a density of 2.7×10^5 cells directly onto 25 mm diameter collagen-coated glass coverslips. The treatments with control (PE) and drugs LY283519 were performed for 24 hours. […] Post treatment, the cells were washed three times in PBS followed by fixation in 4% paraformaldehyde for 30 min. Cells were then permeabilized in blocking buffer (1% bovine serum albumin (BSA), 2% normal goat serum, 0.4% Tx-100 in PBS) for 15 min and were incubated for 2 h at room temperature with primary a Actinin and collagen type I antibody, followed by three successive washes in PBS in a humidified chamber. Cells were then blocked again in blocking buffer for 15 min followed by a 1-hour incubation in fluorescently conjugated secondary antibody. Cells were then washed again in PBS and the nuclei were counterstained with 4′,6-diamidino-2-phenylindole (DAPI). The cells were mounted onto microscope slides with Dako Cytomation fluorescent mounting medium (Dako). Digital fluorescent images were obtained using the Zeiss AxioVision SE64 Imaging software and analyzed using ImageJ2 software.

[8] = test system: Rb phosphorylation; conditions: cited from earlier work
[9] = test system: Cyclin D1/CDK4; conditions: role: inhibitor; cited from earlier work
[10] = test system: cardiomyocytes; assay: Overall observation on remodeling of treated cardiomyocytes; type: cell-based
[11] = test system: CDK6; conditions: role: inhibitor; cited from earlier work
[12] = single treatment, 24 hours, vs control

SMILES | pathways involved in cardiac fibrosis (background) [1] | effect of phenylephrine on left ventricle (background) [2] | CDK4 activation ([3]; PE 100 μM) | cardiomyocyte remodeling ([3]; PE 100 μM) | AurkB activation [4] | cardiomyocyte remodeling [4] | pH3 Ser10 staining [5] | cardiac fibrosis ([6]; PE, compared to control sham animals) | expression of collagen type I [7, 12] | CDK4 activation ([3]; LY2835219 1.5 μM) | pathological effect of PE ([3]; drug for 4 hr following PE treatment for 24 hours) | Rb phosphorylation [8] | cell cycle arrest [8] | inhibition of Cyclin D1/CDK4 [9] | cardiomyocyte remodeling [10] | inhibition of CDK6 [11] | cardiac fibrosis ([6]; LY2835219 in animals subjected to PE treatment) | cardiac fibrosis ([6]; LY2835219 treatment alone) | expression of collagen type I ([7]; PE for 24 hrs followed by LY2835219 for 24 hrs)
CNC[C@H](O)c1cccc(O)c1 [PE, phenylephrine] | stimulate pathways involved in cardiac fibrosis | myocardial hypertrophy of the LV, increased LV weight, systolic dysfunction, and increased expression of HF markers atrial natriuretic peptide and brain natriuretic peptide | CDK4 activation | concentric hypertrophic remodeling was observed | AurkB activation | concentric hypertrophic remodeling was observed | Increased pH3 Ser10 staining | significant increase in cardiac fibrosis | increased expression of type I collagen compared to control |  |  |  |  |  |  |  |  |  | 
CCN1CCN(Cc2ccc(Nc3ncc(F)c(-c4cc(F)c5nc(C)n(C(C)C)c5c4)n3)nc2)CC1 [LY2835219] |  |  |  |  |  |  |  |  | decrease in expression of collagen type I | inhibited CDK4 activation | able to reverse the pathological effect of PE | inhibits Rb phosphorylation | G1 arrest | low nanomolar potency | adaptive and compensatory remodeling that resembles a physiologic growth response, adding sarcomeres in series | low nanomolar potency | did reduce fibrosis | did not induce fibrosis | decreased expression of collagen type I
